PubChem BioAssay AID190 (DTP/NCI, 2004)
“And” between values parts separate entries of the source, which are not always exact repeats. Identical values can stand only once. Toxic doses and inconclusive results are not listed.

Test system: AKR/Lw mice, AKR lymphoma ip, median survival T/C
Experiment: NCI In Vivo Anticancer Drug Screen. Data for tumor model Lymphoma AKR (Transplanted) (intraperitoneal) in AKR/Lw mice
Settings: endpoint: median survival time, higher = longer survival
Experimental: The antitumor activity of compounds was measured in mice bearing transplantable tumors. Survival or tumor size were measured and the results are expressed as the measurement made in the treated group (T) divided by the measurement made in the vehicle treated control group (C). The tumor model used in this assay is Lymphoma AKR (Transplanted) (intraperitoneal) in AKR/Lw mice

[1] = dose: 25.0 mg/kg/injection, schedule: Q04DX003 (ip), vehicle: Klucel (hydroxypropylcellulose) (HPC)
[2] = dose: 50.0 mg/kg/injection, schedule: Q01DX009 (ip), vehicle: Klucel (hydroxypropylcellulose) (HPC)
[3] = dose: 50.0 mg/kg/injection, schedule: Q04DX003 (ip), vehicle: Klucel (hydroxypropylcellulose) (HPC)
[4] = dose: 100.0 mg/kg/injection, schedule: Q04DX003 (ip), vehicle: Klucel (hydroxypropylcellulose) (HPC)
[5] = dose: 200.0 mg/kg/injection, schedule: Q04DX003 (ip), vehicle: Klucel (hydroxypropylcellulose) (HPC)
[6] = dose: 12.5 mg/kg/injection, schedule: Q04DX003 (ip), vehicle: saline
[7] = dose: 25.0 mg/kg/injection, schedule: Q01DX001 (ip), vehicle: saline
[8] = dose: 400.0 mg/kg/injection, schedule: Q01DX001 (ip), vehicle: saline
[9] = dose: 100.0 mg/kg/injection, schedule: Q01DX001 (ip), vehicle: Klucel (hydroxypropylcellulose) (HPC)
[10] = dose: 200.0 mg/kg/injection, schedule: Q01DX001 (ip), vehicle: Klucel (hydroxypropylcellulose) (HPC)
[11] = dose: 400.0 mg/kg/injection, schedule: Q01DX001 (ip), vehicle: Klucel (hydroxypropylcellulose) (HPC)

In the case of `NC(=S)N/N=C/c1ccc(O)cn1`, the T/C (dose: 3.12 mg/kg/injection, schedule: Q01DX009 (ip), vehicle: Klucel (hydroxypropylcellulose) (HPC)) is reported as 116 % of control, the T/C (dose: 12.5 mg/kg/injection, schedule: Q01DX009 (ip), vehicle: Klucel (hydroxypropylcellulose) (HPC)) is reported as 214 % of control and the T/C (dose: 20.0 mg/kg/injection, schedule: Q06HX008 (ip), vehicle: Klucel (hydroxypropylcellulose) (HPC)) is reported as 115 % of control. The T/C (dose: 20.0 mg/kg/injection, schedule: Q06HX012 (ip), vehicle: Klucel (hydroxypropylcellulose) (HPC)) was 115 % of control, the T/C (dose: 25.0 mg/kg/injection, schedule: Q01DX009 (ip), vehicle: Klucel (hydroxypropylcellulose) (HPC)) was 119 % of control and the T/C [1] was 116 % of control. The T/C (dose: 30.0 mg/kg/injection, schedule: Q06HX008 (ip), vehicle: Klucel (hydroxypropylcellulose) (HPC)) was 107 % of control, the T/C (dose: 31.25 mg/kg/injection, schedule: Q06HX004 (ip), vehicle: saline) was 116 % of control and the T/C (dose: 31.25 mg/kg/injection, schedule: Q06HX012 (ip), vehicle: saline) was 96 % of control. For the same molecule, the T/C (dose: 31.25 mg/kg/injection, schedule: Q06HX016 (ip), vehicle: saline) was 113 % of control, the T/C (dose: 40.0 mg/kg/injection, schedule: Q06HX008 (ip), vehicle: Klucel (hydroxypropylcellulose) (HPC)) was 103 % of control and the T/C (dose: 40.0 mg/kg/injection, schedule: Q06HX012 (ip), vehicle: Klucel (hydroxypropylcellulose) (HPC)) was 123 % of control. The T/C [2] was 110 % of control and 214 % of control, the T/C [3] was 123 % of control and the T/C (dose: 50.0 mg/kg/injection, schedule: Q06HX008 (ip), vehicle: Klucel (hydroxypropylcellulose) (HPC)) was 88 % of control. For the same molecule, the T/C (dose: 50.0 mg/kg/injection, schedule: Q06HX012 (ip), vehicle: Klucel (hydroxypropylcellulose) (HPC)) was 111 % of control, the T/C (dose: 60.0 mg/kg/injection, schedule: Q06HX008 (ip), vehicle: Klucel (hydroxypropylcellulose) (HPC)) was 119 % of control and the T/C (dose: 60.0 mg/kg/injection, schedule: Q06HX012 (ip), vehicle: Klucel (hydroxypropylcellulose) (HPC)) was 103 % of control. For the same molecule, the T/C (dose: 62.5 mg/kg/injection, schedule: Q06HX004 (ip), vehicle: saline) was 90 % of control, the T/C (dose: 62.5 mg/kg/injection, schedule: Q06HX008 (ip), vehicle: saline) was 110 % of control and the T/C (dose: 62.5 mg/kg/injection, schedule: Q06HX012 (ip), vehicle: saline) was 113 % of control. For the same molecule, the T/C (dose: 62.5 mg/kg/injection, schedule: Q06HX016 (ip), vehicle: saline) was 120 % of control, the T/C (dose: 75.0 mg/kg/injection, schedule: Q01DX009 (ip), vehicle: Klucel (hydroxypropylcellulose) (HPC)) was 173 % of control and the T/C [4] was 120 % of control. The T/C (dose: 125.0 mg/kg/injection, schedule: Q06HX008 (ip), vehicle: saline) was 96 % of control, the T/C (dose: 125.0 mg/kg/injection, schedule: Q06HX012 (ip), vehicle: saline) was 86 % of control and the T/C [5] was 123 % of control.

For `Cn1c(O)c(C=N)c(=O)n(C)c1=O`, the T/C (dose: 12.0 mg/kg/injection, schedule: Q01DX001 (ip), vehicle: saline) was 102 % of control, the T/C [6] was 97 % of control and the T/C [7] was 105 % of control. For the same molecule, the T/C (dose: 25.0 mg/kg/injection, schedule: Q04DX003 (ip), vehicle: saline) was 100 % of control, the T/C (dose: 50.0 mg/kg/injection, schedule: Q01DX001 (ip), vehicle: saline) was 100 % of control and the T/C (dose: 50.0 mg/kg/injection, schedule: Q04DX003 (ip), vehicle: saline) was 100 % of control.

With `O=P1(NCCCl)OCCCN1CCCl` (stereo unspecified) the T/C (dose: 5.0 mg/kg/injection, schedule: Q01DX009 (ip), vehicle: saline) was 108 % of control, the T/C (dose: 6.25 mg/kg/injection, schedule: Q04DX003 (ip), vehicle: saline) was 96 % of control and the T/C (dose: 10.0 mg/kg/injection, schedule: Q01DX009 (ip), vehicle: saline) was 110 % of control and 113 % of control. The T/C [6] was 96 % of control, the T/C (dose: 18.7 mg/kg/injection, schedule: Q01DX001 (ip), vehicle: saline) was 95 % of control and the T/C (dose: 18.75 mg/kg/injection, schedule: Q01DX001 (ip), vehicle: saline) was 97 % of control. The T/C [7] was 120 % of control, the T/C (dose: 37.5 mg/kg/injection, schedule: Q01DX001 (ip), vehicle: saline) was 95 % of control and 113 % of control and the T/C (dose: 37.5 mg/kg/injection, schedule: Q04DX003 (ip), vehicle: saline) was 95 % of control. The T/C (dose: 50.0 mg/kg/injection, schedule: Q01DX001 (sc), vehicle: steriod suspending solution) was 103 % of control, the T/C (dose: 54.0 mg/kg/injection, schedule: Q01DX001 (ip), vehicle: saline with Tween-80) was 162 % of control and the T/C (dose: 54.0 mg/kg/injection, schedule: Q07DX002 (ip), vehicle: water) was 155 % of control. For the same molecule, the T/C (dose: 60.0 mg/kg/injection, schedule: Q01DX009 (ip), vehicle: saline) was 115 % of control, the T/C (dose: 75.0 mg/kg/injection, schedule: Q07DX003 (ip), vehicle: saline) was 168 % of control and 184 % of control and 186 % of control and the T/C (dose: 80.0 mg/kg/injection, schedule: Q01DX009 (ip), vehicle: saline) was 90 % of control. For the same molecule, the T/C (dose: 100.0 mg/kg/injection, schedule: Q07DX003 (ip), vehicle: saline) was 189 % of control, the T/C (dose: 108.0 mg/kg/injection, schedule: Q01DX001 (ip), vehicle: saline with Tween-80) was 346 % of control and the T/C (dose: 108.0 mg/kg/injection, schedule: Q07DX002 (ip), vehicle: water) was 355 % of control. For the same molecule, the T/C (dose: 125.0 mg/kg/injection, schedule: Q01DX001 (ip), vehicle: saline) was 113 % of control and 153 % of control and 222 % of control, the T/C (dose: 125.0 mg/kg/injection, schedule: Q01DX001 (sc), vehicle: steriod suspending solution) was 153 % of control and the T/C (dose: 125.0 mg/kg/injection, schedule: Q04DX003 (ip), vehicle: saline) was 182 % of control and 236 % of control. The T/C (dose: 125.0 mg/kg/injection, schedule: Q07DX003 (ip), vehicle: saline) was 157 % of control, the T/C (dose: 216.0 mg/kg/injection, schedule: Q01DX001 (ip), vehicle: saline with Tween-80) was 375 % of control and the T/C (dose: 216.0 mg/kg/injection, schedule: Q07DX002 (ip), vehicle: water) was 333 % of control. For the same molecule, the T/C (dose: 250.0 mg/kg/injection, schedule: Q01DX001 (ip), vehicle: saline) was 120 % of control and 222 % of control, the T/C (dose: 250.0 mg/kg/injection, schedule: Q01DX001 (sc), vehicle: steriod suspending solution) was 120 % of control and the T/C (dose: 250.0 mg/kg/injection, schedule: Q04DX003 (ip), vehicle: saline) was 221 % of control and 236 % of control. The T/C (dose: 300.0 mg/kg/injection, schedule: Q04DX003 (ip), vehicle: saline) was 105 % of control, the T/C [8] was 86 % of control and the T/C (dose: 400.0 mg/kg/injection, schedule: Q01DX001 (sc), vehicle: steriod suspending solution) was 123 % of control. The T/C (dose: 432.0 mg/kg/injection, schedule: Q01DX001 (ip), vehicle: saline with Tween-80) was 375 % of control and the T/C (dose: 600.0 mg/kg/injection, schedule: Q01DX001 (ip), vehicle: saline) was 111 % of control.

With `O=C1CSC(=S)N1c1ccco1` the T/C [1] was 109 % of control, the T/C [2] was 97 % of control and the T/C [3] was 92 % of control. For the same molecule, the T/C [9] was 103 % of control, the T/C (dose: 100.0 mg/kg/injection, schedule: Q01DX009 (ip), vehicle: Klucel (hydroxypropylcellulose) (HPC)) was 95 % of control and the T/C [4] was 90 % of control. For the same molecule, the T/C [10] was 96 % of control, the T/C (dose: 200.0 mg/kg/injection, schedule: Q01DX009 (ip), vehicle: Klucel (hydroxypropylcellulose) (HPC)) was 102 % of control and the T/C [5] was 88 % of control.

For `NS(=O)(=O)c1ccc(N=Nc2nc3ncnc(SCc4cccs4)c3[nH]2)cc1`, the T/C [9] was 97 % of control, the T/C [10] was 102 % of control and the T/C [11] was 107 % of control.

`NC(CSC(c1ccccc1)(c1ccccc1)c1ccc(CO)cc1)C(=O)O` (stereo unspecified) was tested, and the T/C [9] was 100 % of control, the T/C [10] was 94 % of control and the T/C [11] was 110 % of control.

With `COc1ccc(COC(=O)CN2C(=O)c3ccccc3C2=O)cc1` the T/C [9] was 97 % of control, the T/C [10] was 100 % of control and the T/C [11] was 113 % of control.

With `C/C(=C\Cl)CN1C(=O)c2ccccc2C1=O` the T/C (dose: 100.0 mg/kg/injection, schedule: Q01DX001 (ip), vehicle: saline) was 93 % of control, the T/C (dose: 200.0 mg/kg/injection, schedule: Q01DX001 (ip), vehicle: saline) was 102 % of control and the T/C [8] was 93 % of control.
